Assay results taken from article PMC5578090, “Biological Evaluation of Uridine Derivatives of 2-Deoxy Sugars as Potential Antiviral Compounds against Influenza A Virus” (International Journal of Molecular Sciences, 2017).
Entries after “also recorded” stand apart in the source; their conditions may differ. Like-named read-outs stand apart in the source and are kept apart here.

Assays:
[1] = test system: influenza virus A/ostrich/Denmark/725/96 (H5N2); assay: microbe, parasite or virus in culture; assay type: cell-based; settings: for IC50: H5N2, MDCK
in vitro = settings: dog
[2] = test system: influenza virus A/ostrich/Denmark/725/96 (H5N2); assay type: cell-based
[3] = test system: influenza virus A/ostrich/Denmark/725/96 (H5N2); assay type: cell-based; remark: listed apart in the source
[4] = test system: HA protein of pandemic human influenza A/H1N1 virus; assay type: cell-based
influenza virus = settings: previously reported; read-out: IC50, anti-influenza virus activity in vitro; cited from earlier work
[5] = 72 h, read-out: IC50 (compound concentration required to inhibit virus plaque production by 50%)
[6] = read-out: p[IC50] = −log[IC50] (converted)

Row | Structure (SMILES) | SI (selectivity index, ratio of CC50 to IC50) [1] | IC50 [1, 5] [µM] | IC50 [1, 6] [µM] | CC50 (in vitro) [µM] | Average size and plaque number [1] | Reduction of virus-induced cytopathic effect (antiviral activity) [2] | Inhibition of virus propagation depending on time of addition [3] | Mature form of HA protein [4] | Yield of HA protein in infected cells [4] | Cytotoxicity (in words) (MDCK cells) | IC50 (influenza virus) [µM]
1 | CC(=O)O[C@H]1[C@H](C)O[C@H](OC[C@H]2O[C@@H](n3ccc(=O)[nH]c3=O)[C@@H]3OC(C)(C)O[C@@H]32)C[C@@H]1O[Si](C)(C)C(C)(C)C [Compound 1] | 1.10 | 175 ± 8.22 | 174 | 193 | – | – | – | – | – | – | –
2 | CC(=O)O[C@H]1[C@H](C)O[C@H](OC[C@H]2O[C@@H](n3ccc(=O)n(C(=O)c4ccccc4)c3=O)[C@@H]3OC(C)(C)O[C@@H]32)C[C@@H]1O[Si](C)(C)C(C)(C)C [Compound 2] | 5.27 | 82 ± 6.81 | 81.3 | 432 | markedly reduced in a dose-dependent manner | significantly reduced the CPE | inhibited the propagation of influenza virus only when it is added to the cells after viral infection | not detected | reduced the formation of HA glycoprotein in a dose-dependent manner; also recorded: reduced by compound 2 in a dose-dependent manner; also recorded: dose-dependent decrease of HA glycoprotein production | – | –
3 | CC1(C)O[C@@H]2[C@H](O1)[C@@H](CO[C@@H]1C[C@@H](OCc3ccccc3)[C@H](OCc3ccccc3)[C@@H](COCc3ccccc3)O1)O[C@H]2n1ccc(=O)[nH]c1=O [Compound 3] | 4.07 | 100 ± 9.84 | 100 | 407 | – | significantly reduced the CPE | – | – | – | – | –
4 | CC1(C)O[C@@H]2[C@H](O1)[C@@H](CO[C@@H]1C[C@@H](OCc3ccccc3)[C@H](OCc3ccccc3)[C@@H](COCc3ccccc3)O1)O[C@H]2n1ccc(=O)n(C(=O)c2ccccc2)c1=O [Compound 4] | 4.85 | 99 ± 5.23 | 100 | 480 | – | significantly reduced the CPE | – | – | – | – | –
5 | CC1(C)O[C@@H]2[C@H](O1)[C@@H](CO[C@@H]1C[C@@H](OCc3ccccc3)[C@H](OCc3ccccc3)[C@@H](CO[Si](C)(C)C(C)(C)C)O1)O[C@H]2n1ccc(=O)[nH]c1=O [Compound 5] | 1.56 | 96 ± 7.64 | 97.7 | 150 | – | – | – | – | – | – | –
6 | CC(=O)OC[C@H]1OC(OC[C@H]2O[C@@H](n3ccc(=O)[nH]c3=O)[C@@H]3OC(C)(C)O[C@@H]32)C[C@@H](OC(C)=O)[C@@H]1OC(C)=O (some centres unmarked) [Compound 6] | 1.08 | 575 ± 17.2 | 575 | 620 | – | – | – | – | – | – | –
7 | CC1(C)O[C@@H]2[C@H](O1)[C@@H](CO[C@@H]1C[C@@H](O)[C@H](O)[C@@H](CO)O1)O[C@H]2n1ccc(=O)[nH]c1=O [Compound 7] | 1.15 | 721 ± 23.2 | 724 | 828 | – | – | – | – | – | low | –
8 | CC1(C)O[C@@H]2[C@H](O1)[C@@H](CO[C@@H]1C[C@@H](O)[C@H](O)[C@@H](CO)O1)O[C@H]2n1ccc(=O)n(Cc2ccccc2)c1=O [Compound 8] | 1.93 | 346 ± 10.5 | 347 | 669 | – | – | – | – | – | low | –
9 | O=c1ccn([C@@H]2O[C@H](CO[C@@H]3C[C@@H](O)[C@H](O)[C@@H](CO)O3)[C@@H](O)[C@H]2O)c(=O)[nH]1 [Compound 9] | 1.95 | 410 ± 11.2 | 407 | 800 | – | – | – | – | – | low | –
10 | CC1(C)O[C@@H]2[C@H](O1)[C@@H](CO[C@@H]1C[C@@H](OCc3ccccc3)[C@H](OCc3ccccc3)[C@@H](CO[Si](C)(C)C(C)(C)C)O1)O[C@H]2n1ccc(=O)n(C(=O)c2ccccc2)c1=O [IW3, reference compound] | 8.89 | 72 ± 5.2 | – | 640 | – | – | – | – | – | – | 72
11 | CC1(C)O[C@@H]2[C@H](O1)[C@@H](CO[C@@H]1C[C@@H](OCc3ccccc3)[C@H](OCc3ccccc3)[C@@H](CO)O1)O[C@H]2n1ccc(=O)n(C(=O)c2ccccc2)c1=O [IW7, reference compound] | 1.95 | 63 ± 4.17 | – | 123 | – | – | – | – | – | – | 63
12 | CCC(CC)O[C@@H]1C=C(C(=O)O)C[C@H](N)[C@H]1NC(C)=O [Oseltamivir carboxylate, reference compound] | – | ~0.15 | – | > 100 | – | – | – | – | – | – | –
